According to ChEMBL document CHEMBL3758169, “4-Aminoindazolyl-dihydrofuro[3,4-d]pyrimidines as non-covalent inhibitors of mutant epidermal growth factor receptor tyrosine kinase” (Bioorg Med Chem Lett, 2016):

Key:
[1] = target: G protein-coupled receptor kinase 3 (Homo sapiens) (UniProt P35626); experiment: Inhibition of GRK3 (unknown origin) at 100 nM
[2] = target: Serine/threonine-protein kinase Nek6 (Homo sapiens) (UniProt Q9HC98); experiment: Inhibition of NEK6 (unknown origin) at 100 nM
[3] = target: cGMP-dependent protein kinase 2 (Homo sapiens) (UniProt Q13237); experiment: Inhibition of PKG2 (unknown origin) at 100 nM
[4] = target: Tyrosine-protein kinase ABL2 (Homo sapiens) (UniProt P42684); experiment: Inhibition of ARG (unknown origin) at 100 nM
[5] = target: Ribosomal protein S6 kinase alpha-3 (Homo sapiens) (UniProt P51812); experiment: Inhibition of RSK2 (unknown origin) at 100 nM
[6] = target: Dual specificity protein kinase CLK3 (Homo sapiens) (UniProt P49761); experiment: Inhibition of CLK3 (unknown origin) at 100 nM
[7] = target: Mitogen-activated protein kinase kinase kinase 5 (Homo sapiens) (UniProt Q99683); experiment: Inhibition of ASK1 (unknown origin) at 100 nM
[8] = target: 5'-AMP-activated protein kinase catalytic subunit alpha-2 (Homo sapiens) (UniProt P54646); experiment: Inhibition of PRKAA2 (unknown origin) at 100 nM
[9] = test system: Mast/stem cell growth factor receptor Kit (Homo sapiens), P10721 [T670I]; experiment: Inhibition of KIT T670I mutant (unknown origin) at 100 nM
[10] = target: Serine/threonine-protein kinase N1 (Homo sapiens) (UniProt Q16512); experiment: Inhibition of PRK1 (unknown origin) at 100 nM
[11] = target: Calcium/calmodulin-dependent protein kinase kinase 2 (Homo sapiens) (UniProt Q96RR4); experiment: Inhibition of CAMKK2 (unknown origin) at 100 nM
[12] = target: Mitogen-activated protein kinase kinase kinase 3 (Homo sapiens) (UniProt Q99759); experiment: Inhibition of MEKK3 (unknown origin) at 100 nM
[13] = target: DNA-dependent protein kinase catalytic subunit (Homo sapiens) (UniProt P78527); experiment: Inhibition of DNA-PK (unknown origin) at 100 nM
Rattus norvegicus = experiment: Unbound AUC in rat at 5 mg/kg, po; format: ADME, organism-based; details: in vivo

Serine/threonine-protein kinase N1 (Homo sapiens), sequence (Q16512 2-942 limits assumed): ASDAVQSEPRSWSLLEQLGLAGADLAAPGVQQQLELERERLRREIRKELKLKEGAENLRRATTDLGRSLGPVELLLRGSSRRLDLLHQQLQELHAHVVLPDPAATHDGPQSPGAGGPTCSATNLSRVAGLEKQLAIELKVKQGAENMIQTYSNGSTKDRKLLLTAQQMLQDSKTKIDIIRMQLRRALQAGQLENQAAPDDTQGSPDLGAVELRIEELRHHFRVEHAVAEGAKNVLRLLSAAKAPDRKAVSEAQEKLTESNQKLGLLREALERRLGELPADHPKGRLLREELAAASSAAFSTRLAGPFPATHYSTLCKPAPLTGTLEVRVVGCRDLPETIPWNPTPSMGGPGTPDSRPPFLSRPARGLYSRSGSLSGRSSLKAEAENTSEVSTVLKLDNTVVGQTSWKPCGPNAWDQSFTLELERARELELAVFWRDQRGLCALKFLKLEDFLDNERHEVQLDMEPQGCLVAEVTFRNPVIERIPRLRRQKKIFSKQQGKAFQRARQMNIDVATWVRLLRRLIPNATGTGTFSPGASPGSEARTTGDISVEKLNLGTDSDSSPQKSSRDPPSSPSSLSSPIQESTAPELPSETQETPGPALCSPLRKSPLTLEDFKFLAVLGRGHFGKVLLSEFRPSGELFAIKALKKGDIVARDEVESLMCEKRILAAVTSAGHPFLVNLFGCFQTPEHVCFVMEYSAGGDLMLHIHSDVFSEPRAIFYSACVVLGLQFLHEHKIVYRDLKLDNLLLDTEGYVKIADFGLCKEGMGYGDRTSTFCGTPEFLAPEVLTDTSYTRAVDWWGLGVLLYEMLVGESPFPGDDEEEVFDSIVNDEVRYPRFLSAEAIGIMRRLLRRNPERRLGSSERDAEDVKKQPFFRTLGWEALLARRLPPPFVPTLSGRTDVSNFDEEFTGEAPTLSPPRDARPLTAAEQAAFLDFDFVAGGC
G protein-coupled receptor kinase 3 (Homo sapiens), sequence (P35626 whole entry): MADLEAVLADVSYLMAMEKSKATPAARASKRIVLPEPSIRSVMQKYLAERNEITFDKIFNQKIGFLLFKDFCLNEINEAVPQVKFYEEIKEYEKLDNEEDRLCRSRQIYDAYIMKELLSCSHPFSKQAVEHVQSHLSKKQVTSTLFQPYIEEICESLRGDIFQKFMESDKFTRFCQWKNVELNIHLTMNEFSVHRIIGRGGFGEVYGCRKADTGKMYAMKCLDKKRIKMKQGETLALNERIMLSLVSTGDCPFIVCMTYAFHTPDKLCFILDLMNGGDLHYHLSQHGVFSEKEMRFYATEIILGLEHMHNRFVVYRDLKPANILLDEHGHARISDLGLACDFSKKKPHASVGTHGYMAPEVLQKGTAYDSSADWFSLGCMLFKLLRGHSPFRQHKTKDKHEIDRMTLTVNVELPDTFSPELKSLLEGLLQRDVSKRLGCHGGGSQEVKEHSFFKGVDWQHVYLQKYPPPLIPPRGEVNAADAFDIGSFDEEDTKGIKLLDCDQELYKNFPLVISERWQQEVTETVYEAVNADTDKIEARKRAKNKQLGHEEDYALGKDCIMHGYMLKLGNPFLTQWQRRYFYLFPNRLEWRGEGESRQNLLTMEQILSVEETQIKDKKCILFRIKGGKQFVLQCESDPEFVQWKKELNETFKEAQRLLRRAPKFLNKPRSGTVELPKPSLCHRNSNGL
Mast/stem cell growth factor receptor Kit (Homo sapiens), P10721 [T670I], sequence (P10721 whole entry T670I): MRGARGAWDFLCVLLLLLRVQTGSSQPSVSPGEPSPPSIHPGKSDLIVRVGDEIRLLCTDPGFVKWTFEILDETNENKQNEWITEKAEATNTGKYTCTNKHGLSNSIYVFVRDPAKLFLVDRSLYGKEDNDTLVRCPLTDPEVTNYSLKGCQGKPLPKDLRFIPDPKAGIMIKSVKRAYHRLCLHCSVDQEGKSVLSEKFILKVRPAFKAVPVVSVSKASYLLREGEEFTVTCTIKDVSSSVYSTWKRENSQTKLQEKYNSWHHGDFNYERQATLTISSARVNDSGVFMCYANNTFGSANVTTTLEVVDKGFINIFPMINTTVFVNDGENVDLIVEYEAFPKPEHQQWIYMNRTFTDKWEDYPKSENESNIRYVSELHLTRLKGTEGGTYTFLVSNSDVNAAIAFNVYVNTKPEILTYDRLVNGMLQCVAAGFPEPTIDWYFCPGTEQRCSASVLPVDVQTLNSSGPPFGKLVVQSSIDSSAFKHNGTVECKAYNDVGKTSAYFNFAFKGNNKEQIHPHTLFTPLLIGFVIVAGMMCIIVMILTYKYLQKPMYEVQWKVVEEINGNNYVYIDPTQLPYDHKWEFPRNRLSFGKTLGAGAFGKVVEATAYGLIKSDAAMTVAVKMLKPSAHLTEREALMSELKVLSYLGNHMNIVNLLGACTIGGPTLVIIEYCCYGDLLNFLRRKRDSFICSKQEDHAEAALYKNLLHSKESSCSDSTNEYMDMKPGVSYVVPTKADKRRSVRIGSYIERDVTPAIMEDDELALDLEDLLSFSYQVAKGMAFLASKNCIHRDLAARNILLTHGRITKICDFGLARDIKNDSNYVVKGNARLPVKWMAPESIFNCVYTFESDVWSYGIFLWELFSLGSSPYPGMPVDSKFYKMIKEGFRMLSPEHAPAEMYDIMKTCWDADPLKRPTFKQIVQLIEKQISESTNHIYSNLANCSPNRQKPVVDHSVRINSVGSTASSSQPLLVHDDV
Dual specificity protein kinase CLK3 (Homo sapiens), sequence (P49761 whole entry, looked up): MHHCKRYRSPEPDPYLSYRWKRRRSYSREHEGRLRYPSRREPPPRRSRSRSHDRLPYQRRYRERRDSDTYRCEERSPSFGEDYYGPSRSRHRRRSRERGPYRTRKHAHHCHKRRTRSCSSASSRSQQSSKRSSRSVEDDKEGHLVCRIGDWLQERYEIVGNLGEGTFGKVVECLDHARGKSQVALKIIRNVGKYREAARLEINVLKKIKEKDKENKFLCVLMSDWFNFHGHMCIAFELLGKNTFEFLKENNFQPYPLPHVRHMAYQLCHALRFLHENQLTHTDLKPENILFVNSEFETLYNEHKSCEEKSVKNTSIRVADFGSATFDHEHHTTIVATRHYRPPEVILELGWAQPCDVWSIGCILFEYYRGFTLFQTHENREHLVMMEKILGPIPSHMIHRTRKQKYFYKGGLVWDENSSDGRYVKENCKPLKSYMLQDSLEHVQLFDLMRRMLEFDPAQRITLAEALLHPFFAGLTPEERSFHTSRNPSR
Calcium/calmodulin-dependent protein kinase kinase 2 (Homo sapiens), sequence (Q96RR4 2-588 limits assumed): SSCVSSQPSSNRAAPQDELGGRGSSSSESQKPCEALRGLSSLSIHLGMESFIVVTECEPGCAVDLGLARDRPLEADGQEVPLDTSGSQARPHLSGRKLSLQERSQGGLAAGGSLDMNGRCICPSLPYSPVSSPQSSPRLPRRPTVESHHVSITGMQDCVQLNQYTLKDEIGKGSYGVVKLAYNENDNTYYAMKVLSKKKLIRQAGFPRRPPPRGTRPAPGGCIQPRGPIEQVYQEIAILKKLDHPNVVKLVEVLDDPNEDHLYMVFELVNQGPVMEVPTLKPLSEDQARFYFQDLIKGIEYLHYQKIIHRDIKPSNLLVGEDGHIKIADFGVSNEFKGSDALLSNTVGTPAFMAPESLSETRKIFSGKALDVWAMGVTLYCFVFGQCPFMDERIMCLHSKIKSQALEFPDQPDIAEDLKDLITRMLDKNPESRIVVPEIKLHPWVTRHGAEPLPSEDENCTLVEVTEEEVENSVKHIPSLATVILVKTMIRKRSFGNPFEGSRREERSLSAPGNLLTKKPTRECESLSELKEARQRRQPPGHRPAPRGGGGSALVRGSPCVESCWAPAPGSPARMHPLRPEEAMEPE
cGMP-dependent protein kinase 2 (Homo sapiens), sequence (Q13237 whole entry): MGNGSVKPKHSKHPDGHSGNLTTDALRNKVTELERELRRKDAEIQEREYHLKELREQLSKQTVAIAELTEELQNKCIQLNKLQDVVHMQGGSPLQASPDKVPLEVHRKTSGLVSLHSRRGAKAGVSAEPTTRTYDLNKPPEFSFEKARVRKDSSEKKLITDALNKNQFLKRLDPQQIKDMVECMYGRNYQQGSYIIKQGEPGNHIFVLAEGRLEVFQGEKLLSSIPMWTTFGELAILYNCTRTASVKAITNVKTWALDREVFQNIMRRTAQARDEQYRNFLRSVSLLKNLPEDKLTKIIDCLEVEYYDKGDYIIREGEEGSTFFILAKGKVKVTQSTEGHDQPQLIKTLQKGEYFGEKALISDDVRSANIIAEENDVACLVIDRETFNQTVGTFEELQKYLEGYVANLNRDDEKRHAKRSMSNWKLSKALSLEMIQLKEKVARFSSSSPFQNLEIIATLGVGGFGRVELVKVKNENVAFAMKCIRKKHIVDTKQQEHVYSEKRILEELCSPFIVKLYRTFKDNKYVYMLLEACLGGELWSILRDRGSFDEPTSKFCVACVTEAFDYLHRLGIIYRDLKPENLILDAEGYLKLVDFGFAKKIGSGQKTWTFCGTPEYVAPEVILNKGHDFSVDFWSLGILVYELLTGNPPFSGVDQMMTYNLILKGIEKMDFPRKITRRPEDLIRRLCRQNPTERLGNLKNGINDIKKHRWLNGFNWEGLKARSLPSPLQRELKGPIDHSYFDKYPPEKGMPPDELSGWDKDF
Mitogen-activated protein kinase kinase kinase 3 (Homo sapiens), sequence (Q99759 whole entry): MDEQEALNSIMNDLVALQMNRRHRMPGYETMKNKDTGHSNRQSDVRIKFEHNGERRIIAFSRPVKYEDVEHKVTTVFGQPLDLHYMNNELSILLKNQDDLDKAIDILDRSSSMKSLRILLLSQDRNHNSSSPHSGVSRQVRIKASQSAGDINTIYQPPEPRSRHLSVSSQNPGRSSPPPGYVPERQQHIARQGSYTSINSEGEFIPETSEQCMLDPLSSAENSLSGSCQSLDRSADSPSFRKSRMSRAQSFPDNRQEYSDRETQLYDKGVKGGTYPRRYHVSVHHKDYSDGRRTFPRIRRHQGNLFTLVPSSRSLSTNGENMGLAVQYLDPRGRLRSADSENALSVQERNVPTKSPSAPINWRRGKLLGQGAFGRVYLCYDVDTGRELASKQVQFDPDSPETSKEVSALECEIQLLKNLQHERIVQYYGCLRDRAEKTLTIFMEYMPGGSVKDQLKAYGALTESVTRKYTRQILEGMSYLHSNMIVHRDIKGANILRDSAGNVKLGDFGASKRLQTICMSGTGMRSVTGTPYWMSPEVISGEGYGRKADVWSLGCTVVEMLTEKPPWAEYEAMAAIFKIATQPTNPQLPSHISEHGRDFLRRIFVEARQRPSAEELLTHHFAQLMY

inhibition [1]: -3.6%
inhibition [2]: 9.9%
inhibition [3]: -8.9%
inhibition [4]: 69.5%
inhibition [5]: -5.9%
inhibition [6]: 3.3%
inhibition [7]: 4.2%
inhibition [8]: 10.9%
inhibition [9]: 17.9%
inhibition [10]: 3.7%
inhibition [11]: 1.8%
inhibition [12]: 49.3%
inhibition [13]: 7.5%
fAUC (Rattus norvegicus): 50 nM·h
SMILES: CC1(C)OCc2c(Nc3n[nH]c4ccccc34)nc(-c3cn[nH]c3)nc21
